From patent US12492187B2, “Factor XI activation inhibitors” (Merck Sharp & Dohme LLC, priority 2020, dated 2025)
Counter-ions that a name gives are not always drawn.

Molecular target: T1, Human coagulation factor (F)XI (Homo sapiens, UniProt P03951)
T1 construct: purchased Haematologic Technologies Inc. (FXI); Enzyme Research Laboratories (FXIIa) HCXI-150 (FXI); HFXIIa (FXIIa)
Experiment: Inhibition of FXIIa mediated activation of FXI (activation of human Factor XI to XIa by human Factor α-XIIa)
Assay type: biochemical
Settings: human FXI pre-incubated with compound 30 min at 22° C., activation by human FXIIa 60 min, z-GPR-AFC substrate, fluorescence 405/510 nm, 4 parameter logistic fit; read-out: Inhibition of FXIIa meditated activation of FXI
Description: Inhibition of FXIIa Mediated Activation of FXI
Activation of Human Factor XI to XIa by Human Factor α-XIIa
Assay was performed in 50 mM HEPES, 150 mM NaCl, 5 mM CaCl2, 0.1% PEG-8000, pH 7.4 buffer in black, flat-bottom, polystyrene microplates (Corning, Cat #3573). Serial dilutions (10-point, 3.333-fold) of the test compounds delivered as 10 mM DMSO stocks were prepared in the Labcyte Echo-qualified PP 384 well microplates (Labcyte, Cat #P-05525). Human coagulation factor (F)XI (Haematologic Technologies Inc., Cat #HCXI-150, concentration 46 nM, 19.5 uL) was pre-incubated with 0.5 uL of the test compounds for 30 min at 22° C. The activation was initiated by addition of 10 uL of human coagulation factor (F)XIIa (Enzyme Research Laboratories, Cat #HFXIIa, concentration 30 nM) and reaction proceeded for 60 min at 22° C., after which it was quenched by addition of a selective inhibitor of FXIIa (Compound 54 in WO2018093695) concentration 600 uM in DMSO, 1 uL). 10 min after the quench, 29 uL of z-GPR-AFC substrate (Sigma, Cat #C0980-10MG, concentration 200 uM) was added into each well and the detection reaction proceeded for 60 min at 22° C. Fluorescence at 405/510 nm was measured in end-point mode using an Envision plate-reader (Perkin Elmer). IDBS Activity Base XE (ABase) analysis using 4 parameter logistic fit was performed to determine Minimum, Maximum, EC50, and Slope Factor for each compound.

T1 sequence (P03951 19-625): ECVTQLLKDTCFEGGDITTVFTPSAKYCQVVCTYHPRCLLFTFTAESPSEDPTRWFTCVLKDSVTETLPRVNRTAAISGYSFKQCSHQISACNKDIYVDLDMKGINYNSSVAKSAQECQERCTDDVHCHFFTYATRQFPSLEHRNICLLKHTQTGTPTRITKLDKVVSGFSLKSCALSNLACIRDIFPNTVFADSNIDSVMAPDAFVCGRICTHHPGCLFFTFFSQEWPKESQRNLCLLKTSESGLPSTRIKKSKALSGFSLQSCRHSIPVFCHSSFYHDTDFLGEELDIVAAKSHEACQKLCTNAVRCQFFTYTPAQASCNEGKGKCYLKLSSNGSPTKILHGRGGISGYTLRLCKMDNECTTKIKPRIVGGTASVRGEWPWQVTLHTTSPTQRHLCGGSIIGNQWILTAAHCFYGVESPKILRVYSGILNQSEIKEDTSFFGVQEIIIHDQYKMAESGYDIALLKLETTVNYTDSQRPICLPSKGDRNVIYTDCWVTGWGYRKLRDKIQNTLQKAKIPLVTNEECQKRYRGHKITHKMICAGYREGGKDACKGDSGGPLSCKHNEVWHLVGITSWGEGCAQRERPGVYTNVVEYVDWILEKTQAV

With `Cc1nc(C(=O)N2CCC(C#N)(c3ccccc3)CC2)cc(C(=O)N2CCN(C3(c4ccccc4)CC3)CC2)c1C` [Example 29, 1-[5,6-dimethyl-4-[4-(1-phenylcyclopropyl)piperazine-1-carbonyl]pyridine-2-carbonyl]-4-phenyl-piperidine-4-carbonitrile] as the compound, how does the EC50 read?
Its EC50 is 41.1 nM.

Which EC50 does the source give for `Cc1cnc(C(=O)N2CCC(C#N)(c3ccccc3)CC2)cc1C(=O)N1CC2CC(C1)C2c1ccccc1` (centres unmarked) [Example 13, 1-(5-methyl-4-(6-phenyl-3-azabicyclo[3.1.1]heptane-3-carbonyl)picolinoyl)-4-phenylpiperidine-4-carbonitrile] here?
Its EC50 is 66.7 nM.

How did the EC50 turn out when `CC(C)(C)C1CCN(C(=O)c2cc(C(=O)N3CCC(C#N)(c4ccccc4)CC3)ncc2C#N)CC1` [Example 25, 4-(4-tert-butylpiperidine-1-carbonyl)-6-(4-cyano-4-phenyl-piperidine-1-carbonyl)pyridin-1-ium-3-carbonitrile; 2,2,2-trifluoroacetate] was run?
Its EC50 is 29.4 nM.

`CC(C)(C)C1CCN(C(=O)c2cc(C(=O)N3CCC(C#N)(c4ccccc4)CC3)ncc2C2CC2)CC1` [Example 15, 1-(4-(4-(tert-butyl)piperidine-1-carbonyl)-5-cyclopropylpicolinoyl)-4-phenylpiperidine-4-carbonitrile, 2,2,2-trifluoroacetate salt] was tested. Which EC50 did it give?
Its EC50 is 42.5 nM.

`N#CC1(c2ccccc2)CCN(C(=O)c2cc(C(=O)N3CC(c4ccc(F)cc4)C3)c(C(F)(F)F)cn2)CC1` [Example 17, 1-(4-(3-(4-fluorophenyl)azetidine-1-carbonyl)-5-(trifluoromethyl)picolinoyl)-4-phenylpiperidine-4-carbonitrile] was tested. Which EC50 did it give?
Its EC50 is 411 nM.

`Cc1nc(C(=O)N2CCC(C#N)(c3ccccc3)CC2)cc(C(=O)N2CCC(C)(c3ccccc3)CC2)c1C` [Example 31, 1-[5,6-dimethyl-4-(4-methyl-4-phenyl-piperidine-1-carbonyl)pyridine-2-carbonyl]-4-phenyl-piperidine-4-carbonitrile] was tested. Which EC50 did it give?
Its EC50 is 124 nM.

For `Cc1cnc(C(=O)N2CCC(C#N)(c3ccccc3)CC2)cc1C(=O)N1CCC2c3ccc(F)cc3OC2C1` (centres unmarked) [Example 20, 1-[4-(7-fluoro-3,4,4a,9a-tetrahydro-1H-benzofuro[2,3-c]pyridine-2-carbonyl)-5-methyl-pyridin-1-ium-2-carbonyl]-4-phenyl-piperidine-4-carbonitrile; 2,2,2-trifluoroacetate], which EC50 is on record?
The EC50 was 37.1 nM.

With `Cc1nc(C(=O)N2CCC(C#N)(c3ccccc3)CC2)cc(C(=O)N2CCC(N3CCC(F)(F)C3)CC2)c1C` [Example 26, 1-[4-[4-(3,3-difluoropyrrolidin-1-ium-1-yl)piperidine-1-carbonyl]-5,6-dimethyl-pyridine-2-carbonyl]-4-phenyl-piperidine-4-carbonitrile; 2,2,2-trifluoroacetate] as the compound, how does the EC50 read?
Its EC50 is 105 nM.

How did the EC50 turn out when `Cc1nc(C(=O)N2CCC(C#N)(c3ccccc3)CC2)cc(C(=O)N2CCC(Cc3nccs3)CC2)c1C` [Example 28, 1-[5,6-dimethyl-4-[4-(thiazol-2-ylmethyl)piperidine-1-carbonyl]pyridine-2-carbonyl]-4-phenyl-piperidine-4-carbonitrile] was run?
Its EC50 is 62.2 nM.

With `Cc1nc(C(=O)N2CCC(C#N)(c3ccccc3)CC2)cc(C(=O)N2CCC(Cc3ccccc3)CC2)c1C` [Example 30, 1-[4-(4-benzylpiperidine-1-carbonyl)-5,6-dimethyl-pyridine-2-carbonyl]-4-phenyl-piperidine-4-carbonitrile] as the compound, how does the EC50 read?
Its EC50 is 47.8 nM.

`Cc1cnc(C(=O)N2CCC(C#N)(c3ccccc3)CC2)cc1C(=O)N1CCC(CCc2ccccc2)CC1` [Example 6, 1-(5-methyl-4-(4-phenethylpiperidine-1-carbonyl)picolinoyl)-4-phenylpiperidine-4-carbonitrile] was tested. Which EC50 did it give?
Its EC50 is 150 nM.

For `Cc1nc(C(=O)N2CCC(C#N)(c3ccccc3)CC2)cc(C(=O)N2CCC(c3ccccc3)CC2)c1C` [Example 32, 1-[5,6-dimethyl-4-(4-phenylpiperidine-1-carbonyl)pyridine-2-carbonyl]-4-phenyl-piperidine-4-carbonitrile], which EC50 is on record?
Its EC50 is 36.6 nM.

Which EC50 does the source give for `Cc1cnc(C(=O)N2CCC(C#N)(c3ccccc3)CC2)cc1C(=O)N1CC[C@@H]2c3ccccc3O[C@@H]2C1` (racemic) [Example 2, 1-(4-((4aR,9aS)-1,2,3,4,4a,9a-hexahydrobenzofuro[2,3-c]pyridine-2-carbonyl)-5-methylpicolinoyl)-4-phenylpiperidine-4-carbonitrile and 1-(4-((4aS,9aR)-1,2,3,4,4a,9a-hexahydrobenzofuro[2,3-c]pyridine-2-carbonyl)-5-methylpicolinoyl)-4-phenylpiperidine-4-carbonitrile] here?
The EC50 was 39.4 nM.

`COc1ccc2c(c1)OC1CN(C(=O)c3cc(C(=O)N4CCC(C#N)(c5ccccc5)CC4)ncc3C)CCC21` (centres unmarked) [Example 21, 1-[4-(7-methoxy-3,4,4a,9a-tetrahydro-1H-benzofuro[2,3-c]pyridine-2-carbonyl)-5-methyl-pyridin-1-ium-2-carbonyl]-4-phenyl-piperidine-4-carbonitrile; 2,2,2-trifluoroacetate] was tested. Which EC50 did it give?
The EC50 was 199 nM.

Which EC50 does the source give for `Cc1nc(C(=O)N2CCC(C#N)(c3ccccc3)CC2)cc(C(=O)N2CCC(C(C)(C)C)CC2)c1C` [Example 27, 1-[4-(4-tert-butylpiperidine-1-carbonyl)-5,6-dimethyl-pyridine-2-carbonyl] -4-phenyl-piperidine-4-carbonitrile] here?
Its EC50 is 25.1 nM.

`Cc1cnc(C(=O)N2CCC(C#N)(c3ccccc3)CC2)cc1C(=O)N1CCN(C2CCCC2)C(=O)C1` [Example 11, 1-(4-(4-cyclopentyl-3-oxopiperazine-1-carbonyl)-5-methylpicolinoyl)-4-phenylpiperidine-4-carbonitrile] was tested. Which EC50 did it give?
Its EC50 is 164 nM.

`Cc1cnc(C(=O)N2CCC(C#N)(c3ccccc3)CC2)cc1C(=O)N1CC(c2ccc(F)cc2)C1` [Example 9, 1-(4-(3-(4-fluorophenyl)azetidine-1-carbonyl)-5-methylpicolinoyl)-4-phenylpiperidine-4-carbonitrile] was tested. Which EC50 did it give?
Its EC50 is 107 nM.

`Cc1cnc(C(=O)N2CCC(C#N)(c3ccccc3)CC2)cc1C(=O)N1CCC2c3ccc(Cl)cc3OC2C1` (centres unmarked) [Example 23, 1-[4-(7-chloro-3,4,4a,9a-tetrahydro-1H-benzofuro[2,3-c]pyridine-2-carbonyl)-5-methyl-pyridin-1-ium-2-carbonyl]-4-phenyl-piperidine-4-carbonitrile; 2,2,2-trifluoroacetate] was tested. Which EC50 did it give?
Its EC50 is 75.1 nM.

Which EC50 does the source give for `Cc1cnc(C(=O)N2CCC(C#N)(c3ccccc3)CC2)cc1C(=O)N1CCC2c3cc(F)c(F)cc3OC2C1` (centres unmarked) [Example 24, 1-[4-(6,7-difluoro-3,4,4a,9a-tetrahydro-1H-benzofuro[2,3-c]pyridine-2-carbonyl)-5-methyl-pyridin-1-ium-2-carbonyl]-4-phenyl-piperidine-4-carbonitrile; 2,2,2-trifluoroacetate] here?
Its EC50 is 62.2 nM.

`Cc1cnc(C(=O)N2CCC(C#N)(c3ccccc3)CC2)cc1C(=O)N1CCC2c3cc(F)ccc3OC2C1` (centres unmarked) [Example 14, 1-(4-(6-fluoro-1,2,3,4,4a,9a-hexahydrobenzofuro[2,3-c]pyridine-2-carbonyl)-5-methylpicolinoyl)-4-phenylpiperidine-4-carbonitrile] was tested. Which EC50 did it give?
The EC50 was 45.1 nM.
